The nature of data set [1]: MDZ metabolic activity in small intestinal microsomes. The settings on record: MDZ 50 umol/L, 0.5 mg/mL microsomes, 37° C., 10 minutes. Format: in vitro ADME, mouse. Here is the method:
(§1) On weeks 10 to 11 after transplantation (14-week-old), each of chimeric mice and non-transplanted cyp3a (KO/KO)/uPA(+/+)/SCID(+/+) mice [N2F1] was dissected and thus the liver, the small intestine, and blood were collected. The collected liver and small intestine were cut into appropriate sizes. The resulting pieces were immersed in 1 mL of RNA Later (Life Technologies Corporation, Cat No. AM7020), stored at 4° C. overnight, and then stored at −80° C. In addition, portions of the liver and the small intestine were embedded in an OCT compound (Tissue-Tek) for the preparation of frozen sections, and then cryopreserved with liquid nitrogen. Microsomes were prepared from the remaining small intestine and liver portions by procedures such as centrifugation. The thus prepared microsomes were stored at −80° C.
(§2) MDZ metabolic activity was determined using microsomes from the liver and the small intestine from each mouse prepared in Example 2 above. In an experiment using hepatic microsomes, MDZ with a final concentration of 50 umol/L was incubated in hepatic microsomes with a final concentration of 0.1 mg/mL at 37° C. for 5 minutes. […] 1′- and 4-hydroxylated metabolites of MDZ were measured using LC-MS/MS.

Data set [2] in a line: MDZ metabolic activity in hepatic microsomes. Format: in vitro ADME, mouse. The conditions noted are these: cyp3a (KO/KO)/uPA(+/+)/SCID(+/+) chimeric mice [N2F1] compared with PXB mice; MDZ 50 umol/L, 0.1 mg/mL microsomes, 37° C., 5 minutes; 1'- and 4-hydroxylated metabolites. Here is the method: as §1, §2
Data set [3] is described as follows: Metabolic studies for nefazodone hydrochloride (metabolite profiles in blood plasma and urine after peroral administration). Format: in vivo, mouse. The procedure:
Eight (8) mg of free/mL nefazodone hydrochloride suspended in 0.5% methylcellulose (resulting in a dose of […].) was forcibly administered perorally twice in a volume of 5 mL/kg b.w. at each instance to four (two male and two female mice) cyp3a (KO/KO)/uPA(+/+)/SCID(+/+) mice [N4F1] (week 8 after transplantation (11-week-old)) obtained in Example 8 above by transplantation of human hepatocytes.
Immediately after the first peroral administration of nefazodone hydrochloride, the animals were housed in metabolic cages. Urine was sampled at a time 0 to 8 hours after administration and at a time 8 to 24 hours after administration, at room temperature. After the sampling of urine, the 2nd peroral administration of nefazodone hydrochloride was performed. One (1) hour after administration, blood, small intestine, and liver samples were collected. Immediately after blood collection, centrifugation (1000×g, 4° C. for 10 minutes) was performed to prepare blood plasma. Immediately after collection, urine and blood plasma were stored at −80° C. The PXB mice and the SCID(+/+) mice were similarly treated, and thus blood plasma and urine samples were obtained.
Acetonitrile was added to the thus obtained blood plasma and urine, in an amount equivalent thereto, for deproteinization. Centrifugal filtration (Ultrafree-MC centrifugal filtration tube; 0.45 μm, 9500×g, 2 min, 4° C.) was then performed. The thus obtained filtrates were designated as analytical samples.

The mark [4] stands for this setting: PXB mice, 10 mg free/kg peroral, 1 hour after 2nd administration.
[5] abbreviates: SCID(+/+) mice, 10 mg free/kg peroral, 1 hour after 2nd administration.
The mark [6] stands for this setting: cyp3a (KO/KO)/uPA(+/+)/SCID(+/+) chimeric mice [N4F1], 10 mg free/kg peroral, 1 hour after 2nd administration.

Molecules are shown by their SMILES. Where a name gives a salt, the structure may show the parent alone.

The record followed here is US9420769B2, “Chimeric non-human animal carrying human hepatocyte” (PHOENIXBIO CO., LTD., priority 2011, dated 2016).

Consider `Cc1ncc2n1-c1ccc(Cl)cc1C(c1ccccc1F)=NC2` [MDZ, Midazolam], for which the results for the “MDZ metabolic activity in small intestinal microsomes” value in data set [1] (cyp3a (KO/KO)/uPA(+/+)/SCID(+/+) chimeric mice [N2F1] compared with PXB mice) and in data set [1] (cyp3a (KO/KO)/uPA(+/+)/SCID(+/+) chimeric mice [N2F1] compared with non-transplanted cyp3a (KO/KO)/uPA(+/+)/SCID(+/+) mice [N2F1]) were “lower than that of the PXB mice” and “almost the same as that of the non-transplanted”, respectively. Besides, in data set [2], the “MDZ metabolic activity in hepatic microsomes” value is given as “almost the same”.
Regarding `CCc1nn(CCCN2CCN(c3cccc(Cl)c3)CC2)c(=O)n1CCOc1ccccc1` [nefazodone hydrochloride], the “metabolites detected in blood plasma” value in data set [3] (setting [4]) and in data set [3] (setting [5]) was “Triazoledione metabolite alone was detected” throughout. Also, the results for the “unchanged nefazodone in blood plasma” value in data set [3] (setting [4]), in data set [3] (setting [5]) and in data set [3] (setting [6]) were “not detected”, “not detected” and “detected”, respectively. Moreover, the “metabolites detected in urine” value in data set [3] (PXB mice, 10 mg free/kg peroral, urine 0 to 24 hours after administration) was “metabolite C alone was detected”; in data set [3] (SCID(+/+) mice, 10 mg free/kg peroral, urine 0 to 24 hours after administration) it was “metabolite C alone was detected”. Also, in data set [3] (setting [6]), the “human-type metabolites detected in blood plasma, in addition to Triazoledione metabolite” value is “OH-NEF and p-OH-NEF”. The “human-type metabolites detected in urine” value in data set [3] (cyp3a (KO/KO)/uPA(+/+)/SCID(+/+) chimeric mice [N4F1], 10 mg free/kg peroral, urine 0 to 24 hours after administration) is “mCPP and metabolite D”. Further, in data set [3] (cyp3a (KO/KO)/uPA(+/+)/SCID(+/+) chimeric mice, unlike PXB mice and SCID(+/+) mice), the metabolic profiles entry is listed as “reflected the human drug-metabolizing system”.
